# In article PMC4965148 (PLoS ONE, 2016):
# Values joined by “and” are separate entries in the source; they are usually repeats but may differ in a detail not shown here. Equal values may be shown once.
# Tests used:
# CB1 = CB1 (Homo sapiens, UniProt P21554); experiment: Selectivity panel, binding; conditions: read-out: % inhibition @ 10 µM
# C57Bl/6 mice = experiment: Mouse 24 h novel object recognition; type: in vivo
# Experimental: The procedure followed a 3 day protocol. On day 1 (habituation) individual mice were habituated to the testing chamber (a white PVC box 48 cm long x 38 cm wide x 20 cm high with brown linoleum flooring) for 15 min then returned to their home cage. On day 2 (training) individual mice were returned to the testing chamber containing 2 identical objects and allowed to explore. The training session lasted for up to 15 min or until the mouse explored the objects for a total of 60 s. A maximal trial duration of 15 min was used to accommodate mice that are slower to initiate exploration. On day 3 (testing) individual mice were returned to the testing chamber 24 h later containing 1 familiar object encountered in the previous training session and one novel object. The testing session lasted up to 10 min or until the mouse explored the objects for a total of 60 s. The objects used for these studies were made of duplex legos approximately 3 inches high x 1 inch wide; one object was a multicolored rectangle and the second object was a solid color rectangle with a short arm attached. The location of the objects was counterbalanced between animals but was consistent within animals so that only the object itself was novel on the test session. The familiar object used during the test session was the same object used during training and all objects were thoroughly cleaned between sessions and between subjects. Animal behavior was video recorded during both training and testing and the amount of time spent exploring the objects determined using Cleversys software. Object exploration was only scored when the animal’s nose was within 1 cm of the object. […] The vehicle was chosen for sc dosing to ensure that BMS-933043 was dosed as a solution and not a suspension. […] For each subject the % discrimination index (DI) was calculated for both the training and test session as follows: %DI training = (time exploring object 1—time exploring object 2)/(total time exploring object 1 + object 2) X 100; %DI testing = (time exploring novel object—time exploring familiar object)/(total time exploring novel + familiar object) X 100.
# PDE3 = experiment: Selectivity panel, enzyme; type: biochemical; conditions: Human
# MAO-A = MAO-A (Homo sapiens, UniProt P21397); experiment: Selectivity panel, enzyme; type: biochemical
# Muscarinic M2 = Muscarinic M2 (Homo sapiens, UniProt P08172); experiment: Selectivity panel, binding
# Adenosine A2a = Adenosine A2a (Homo sapiens, UniProt P29274); experiment: Selectivity panel, binding
# rat α1β1δε nAChR = target: T1, rat α1β1δε nAChR (Rattus norvegicus, UniProt P09660+P25108+P25109+P25110); experiment: Ca2+ flux (FLIPR) agonist/antagonist assay; type: cell-based; conditions: FLIPR antagonist mode, EC90 ACh
# T1 construct: expressed in transfected cells; host or cells: HEK293 (made by Bristol-Myers Squibb)
# Muscarinic M4 = Muscarinic M4 (Homo sapiens, UniProt P08173); experiment: Selectivity panel, binding; conditions: read-out: % inhibition @ 10 µM
# Adrenergic α1D = Adrenergic α1D (Homo sapiens, UniProt P25100); experiment: Selectivity panel, binding
# 5-HT2A = 5-HT2A (Homo sapiens, UniProt P28223); experiment: Selectivity panel, functional; type: cell-based
# 5-HT1B = experiment: Selectivity panel, binding; conditions: read-out: % inhibition @ 10 µM, Rat
# NMDA NR1/2A = NMDA NR1/2A (Homo sapiens, UniProt Q05586+Q12879); experiment: Selectivity panel, functional; type: cell-based
# human 5-HT3A receptors = target: T2, human 5-HT3A receptors (Homo sapiens, UniProt P46098); experiment: biochemical
# T2 sequence (P46098 24-478): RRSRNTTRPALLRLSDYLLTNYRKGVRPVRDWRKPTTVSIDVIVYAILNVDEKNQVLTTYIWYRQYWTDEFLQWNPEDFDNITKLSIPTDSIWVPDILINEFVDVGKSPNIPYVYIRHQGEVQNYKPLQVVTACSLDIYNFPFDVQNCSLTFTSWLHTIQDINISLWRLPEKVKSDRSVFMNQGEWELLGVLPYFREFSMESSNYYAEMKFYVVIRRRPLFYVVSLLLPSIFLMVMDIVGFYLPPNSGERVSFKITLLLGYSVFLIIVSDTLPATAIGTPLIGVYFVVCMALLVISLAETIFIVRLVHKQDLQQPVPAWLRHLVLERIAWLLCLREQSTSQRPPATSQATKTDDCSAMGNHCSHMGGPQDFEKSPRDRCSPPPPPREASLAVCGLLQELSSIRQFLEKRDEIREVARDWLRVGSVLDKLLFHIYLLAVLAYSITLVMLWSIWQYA
# Glucocorticoid receptor = Glucocorticoid receptor (Homo sapiens, UniProt P04150); experiment: Selectivity panel, binding
# Histamine H1 = Histamine H1 (Homo sapiens, UniProt P35367); experiment: Selectivity panel, binding
# 5-HT1A = 5-HT1A (Homo sapiens, UniProt P08908); experiment: Selectivity panel, binding; conditions: read-out: % inhibition @ 10 µM
# rat α4β2 nAChR = target: T3, rat α4β2 nAChR (Rattus norvegicus, UniProt P09483+P12390); experiment: Ca2+ flux (FLIPR) agonist/antagonist assay; type: cell-based; conditions: FLIPR antagonist mode, EC90 ACh
# T3 construct: expressed in transfected cells; host or cells: HEK293 (made by Bristol-Myers Squibb)
# MAO-B = MAO-B (Homo sapiens, UniProt P27338); experiment: Selectivity panel, enzyme; type: biochemical
# Sequence of MAO-B (P27338 whole entry): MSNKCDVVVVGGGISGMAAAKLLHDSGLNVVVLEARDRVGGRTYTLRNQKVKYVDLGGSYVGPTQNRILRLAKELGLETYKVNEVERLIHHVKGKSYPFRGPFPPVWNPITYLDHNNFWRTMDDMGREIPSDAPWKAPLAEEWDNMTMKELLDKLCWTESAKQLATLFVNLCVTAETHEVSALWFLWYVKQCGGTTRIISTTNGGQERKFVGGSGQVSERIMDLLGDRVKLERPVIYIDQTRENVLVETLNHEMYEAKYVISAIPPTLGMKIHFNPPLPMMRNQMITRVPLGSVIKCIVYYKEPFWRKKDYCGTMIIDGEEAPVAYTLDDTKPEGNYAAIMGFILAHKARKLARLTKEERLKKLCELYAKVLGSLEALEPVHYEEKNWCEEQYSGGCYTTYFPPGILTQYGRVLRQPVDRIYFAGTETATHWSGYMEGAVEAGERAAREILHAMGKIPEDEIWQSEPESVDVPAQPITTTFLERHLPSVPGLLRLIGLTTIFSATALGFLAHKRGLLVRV
# Sequence of 5-HT1B (P28222 whole entry): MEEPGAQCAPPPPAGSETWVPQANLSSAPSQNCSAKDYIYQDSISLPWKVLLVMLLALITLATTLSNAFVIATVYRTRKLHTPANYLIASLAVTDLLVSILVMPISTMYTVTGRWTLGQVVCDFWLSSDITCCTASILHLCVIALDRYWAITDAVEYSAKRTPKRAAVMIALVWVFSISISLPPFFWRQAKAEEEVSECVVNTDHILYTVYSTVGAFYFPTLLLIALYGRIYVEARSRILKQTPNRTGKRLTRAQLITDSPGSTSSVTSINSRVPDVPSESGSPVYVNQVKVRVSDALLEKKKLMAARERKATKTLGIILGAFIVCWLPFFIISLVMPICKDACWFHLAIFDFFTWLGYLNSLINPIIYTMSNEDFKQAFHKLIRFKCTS
# Sequence of Muscarinic M4 (P08173 whole entry): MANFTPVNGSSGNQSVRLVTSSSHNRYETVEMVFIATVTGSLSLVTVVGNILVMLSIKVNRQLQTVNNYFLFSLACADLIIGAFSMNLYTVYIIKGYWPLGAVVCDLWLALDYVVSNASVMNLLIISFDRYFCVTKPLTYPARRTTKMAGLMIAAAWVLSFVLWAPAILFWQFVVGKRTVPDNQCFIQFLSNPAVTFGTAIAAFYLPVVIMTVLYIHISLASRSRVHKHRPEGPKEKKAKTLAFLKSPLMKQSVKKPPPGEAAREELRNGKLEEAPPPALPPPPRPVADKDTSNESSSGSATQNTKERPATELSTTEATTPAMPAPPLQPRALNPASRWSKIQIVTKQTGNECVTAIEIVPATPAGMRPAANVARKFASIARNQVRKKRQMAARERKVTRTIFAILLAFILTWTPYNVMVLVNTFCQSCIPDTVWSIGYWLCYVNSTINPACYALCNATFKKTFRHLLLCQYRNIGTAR
# Sequence of CB1 (P21554 whole entry): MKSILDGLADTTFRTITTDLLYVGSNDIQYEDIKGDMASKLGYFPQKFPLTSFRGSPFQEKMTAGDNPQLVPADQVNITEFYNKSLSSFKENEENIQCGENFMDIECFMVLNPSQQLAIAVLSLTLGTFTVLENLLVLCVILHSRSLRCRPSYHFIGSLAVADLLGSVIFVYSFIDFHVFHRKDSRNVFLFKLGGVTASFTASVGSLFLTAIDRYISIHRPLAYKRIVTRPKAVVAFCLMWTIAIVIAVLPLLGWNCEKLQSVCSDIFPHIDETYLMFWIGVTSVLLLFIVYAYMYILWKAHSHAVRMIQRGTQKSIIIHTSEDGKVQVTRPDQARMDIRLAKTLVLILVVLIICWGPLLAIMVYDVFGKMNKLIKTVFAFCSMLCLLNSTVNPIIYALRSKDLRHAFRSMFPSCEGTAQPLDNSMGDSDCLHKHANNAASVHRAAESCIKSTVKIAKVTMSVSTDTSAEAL
# Sequence of Glucocorticoid receptor (P04150 whole entry): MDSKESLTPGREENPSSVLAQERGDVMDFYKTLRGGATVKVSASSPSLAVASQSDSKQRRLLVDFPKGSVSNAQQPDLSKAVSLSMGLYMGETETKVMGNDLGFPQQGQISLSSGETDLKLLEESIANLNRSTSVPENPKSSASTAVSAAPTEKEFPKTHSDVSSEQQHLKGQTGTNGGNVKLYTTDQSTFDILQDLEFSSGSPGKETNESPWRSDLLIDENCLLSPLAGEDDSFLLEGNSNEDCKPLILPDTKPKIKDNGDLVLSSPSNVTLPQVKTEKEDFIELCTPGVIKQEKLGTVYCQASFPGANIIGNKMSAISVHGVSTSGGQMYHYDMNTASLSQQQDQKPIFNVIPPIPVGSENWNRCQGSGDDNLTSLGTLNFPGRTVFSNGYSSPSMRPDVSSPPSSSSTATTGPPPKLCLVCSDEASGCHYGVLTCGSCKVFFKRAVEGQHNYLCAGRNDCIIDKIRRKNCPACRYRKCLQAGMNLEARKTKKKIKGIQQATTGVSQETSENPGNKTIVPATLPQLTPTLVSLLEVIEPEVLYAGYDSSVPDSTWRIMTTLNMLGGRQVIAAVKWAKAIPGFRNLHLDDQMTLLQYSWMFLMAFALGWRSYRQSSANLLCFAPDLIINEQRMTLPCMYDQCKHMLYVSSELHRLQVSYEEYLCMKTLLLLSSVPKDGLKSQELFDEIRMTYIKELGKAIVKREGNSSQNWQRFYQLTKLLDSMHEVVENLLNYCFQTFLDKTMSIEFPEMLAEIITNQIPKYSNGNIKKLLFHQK
# Sequence of Histamine H1 (P35367 whole entry): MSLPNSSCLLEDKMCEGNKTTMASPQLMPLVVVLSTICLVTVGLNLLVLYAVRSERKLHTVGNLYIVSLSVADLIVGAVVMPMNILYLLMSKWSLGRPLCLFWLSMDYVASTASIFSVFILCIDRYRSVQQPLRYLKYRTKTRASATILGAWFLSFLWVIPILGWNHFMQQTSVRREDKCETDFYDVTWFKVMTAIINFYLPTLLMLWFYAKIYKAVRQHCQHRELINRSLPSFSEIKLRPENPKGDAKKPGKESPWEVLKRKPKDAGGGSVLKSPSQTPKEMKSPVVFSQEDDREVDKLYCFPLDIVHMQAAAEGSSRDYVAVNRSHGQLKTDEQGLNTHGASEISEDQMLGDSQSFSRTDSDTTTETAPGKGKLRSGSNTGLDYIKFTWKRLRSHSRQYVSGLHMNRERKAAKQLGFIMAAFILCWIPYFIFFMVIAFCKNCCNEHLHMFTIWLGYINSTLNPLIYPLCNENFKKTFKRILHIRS
# Sequence of Muscarinic M2 (P08172 whole entry): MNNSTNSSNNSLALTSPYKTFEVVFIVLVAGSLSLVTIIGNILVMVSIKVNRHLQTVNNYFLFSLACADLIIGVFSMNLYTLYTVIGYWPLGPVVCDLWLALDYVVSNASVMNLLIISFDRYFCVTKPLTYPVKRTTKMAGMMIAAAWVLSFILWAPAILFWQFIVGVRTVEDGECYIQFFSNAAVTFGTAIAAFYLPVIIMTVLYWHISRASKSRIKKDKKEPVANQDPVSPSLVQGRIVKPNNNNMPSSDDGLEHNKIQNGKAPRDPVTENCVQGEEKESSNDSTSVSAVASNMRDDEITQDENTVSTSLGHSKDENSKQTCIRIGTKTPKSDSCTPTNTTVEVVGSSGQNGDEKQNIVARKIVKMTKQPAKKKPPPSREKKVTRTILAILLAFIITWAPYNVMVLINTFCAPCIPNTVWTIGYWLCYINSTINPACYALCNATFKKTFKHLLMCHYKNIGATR
# Sequence of 5-HT1A (P08908 whole entry): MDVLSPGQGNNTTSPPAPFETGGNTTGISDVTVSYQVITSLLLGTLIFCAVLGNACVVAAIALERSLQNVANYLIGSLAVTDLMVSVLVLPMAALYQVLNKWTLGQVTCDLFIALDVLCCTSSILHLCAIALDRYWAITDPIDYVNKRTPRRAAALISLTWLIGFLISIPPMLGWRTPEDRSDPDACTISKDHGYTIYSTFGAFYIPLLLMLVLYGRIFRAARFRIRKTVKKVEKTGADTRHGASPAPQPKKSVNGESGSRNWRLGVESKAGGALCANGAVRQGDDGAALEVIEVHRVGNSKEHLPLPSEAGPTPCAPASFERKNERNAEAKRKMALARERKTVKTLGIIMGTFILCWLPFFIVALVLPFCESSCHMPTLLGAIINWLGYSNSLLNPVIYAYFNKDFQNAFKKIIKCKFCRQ
# Sequence of Adenosine A2a (P29274 whole entry): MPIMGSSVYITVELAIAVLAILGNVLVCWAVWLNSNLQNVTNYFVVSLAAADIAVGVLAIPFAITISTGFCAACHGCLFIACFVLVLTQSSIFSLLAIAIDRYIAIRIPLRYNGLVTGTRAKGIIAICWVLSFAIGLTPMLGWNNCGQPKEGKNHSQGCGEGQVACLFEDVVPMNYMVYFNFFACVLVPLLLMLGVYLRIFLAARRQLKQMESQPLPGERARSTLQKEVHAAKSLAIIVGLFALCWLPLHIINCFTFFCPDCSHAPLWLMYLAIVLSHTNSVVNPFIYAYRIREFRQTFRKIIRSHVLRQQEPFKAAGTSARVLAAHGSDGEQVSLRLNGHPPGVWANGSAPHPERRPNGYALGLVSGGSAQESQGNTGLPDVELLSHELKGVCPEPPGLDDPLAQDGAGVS
# Sequence of MAO-A (P21397 whole entry): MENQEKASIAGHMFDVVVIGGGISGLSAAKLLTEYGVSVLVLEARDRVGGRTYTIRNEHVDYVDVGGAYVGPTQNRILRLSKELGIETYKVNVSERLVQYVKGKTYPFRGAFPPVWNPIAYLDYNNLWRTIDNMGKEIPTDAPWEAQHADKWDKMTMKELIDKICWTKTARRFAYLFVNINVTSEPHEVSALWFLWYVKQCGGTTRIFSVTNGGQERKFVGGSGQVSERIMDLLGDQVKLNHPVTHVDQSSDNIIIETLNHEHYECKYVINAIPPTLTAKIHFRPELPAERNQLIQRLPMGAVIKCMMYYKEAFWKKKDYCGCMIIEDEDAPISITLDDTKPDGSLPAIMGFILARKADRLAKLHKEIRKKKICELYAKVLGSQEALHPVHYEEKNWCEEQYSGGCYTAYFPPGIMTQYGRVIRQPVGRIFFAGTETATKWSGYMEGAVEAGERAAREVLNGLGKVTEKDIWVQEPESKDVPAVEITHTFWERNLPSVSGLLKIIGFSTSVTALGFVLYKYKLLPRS
structure (smiles),measurement,setting,value
"c1cn(-c2cc(NC3=NC[C@@]4(CN5CCC4CC5)O3)ncn2)cn1 [BMS-933043, (2R)-N-(6-(1H-imidazol-1-yl)-4-pyrimidinyl)-4'H-spiro[4-azabicyclo[2.2.2]octane-2,5'-[1,3]oxazol]-2'-amine]",inhibition at 10 µM,CB1,-5%
same,total object exploration time in training or testing session,C57Bl/6 mice; mice,does not alter total object exploration time
same,"effective dose range, 24 h novel object recognition","C57Bl/6 mice; sc, 30 min prior to training",0.1 to 10 mg/kg
same,IC50,PDE3,> 30 µM
same,IC50,MAO-A,> 30 µM
same,IC50,Muscarinic M2,19.1 µM
same,IC50,Adenosine A2a,> 30 µM
same,IC50,rat α1β1δε nAChR,> 30 µM
same,inhibition at 10 µM,Muscarinic M4,10%
same,IC50,Adrenergic α1D,> 30 µM
same,EC50,5-HT2A,> 10 µM
same,inhibition at 10 µM,5-HT1B,0%
same,IC50,NMDA NR1/2A,> 30 µM
same,Ki,"human 5-HT3A receptors; HEK293/human 5-HT3A Ki (individual), individual determinations",2.31 µM and 2.59 µM
same,Ki,human 5-HT3A receptors; human 5-HT3A mean Ki ± SD,2.45 µM
same,IC50,Glucocorticoid receptor,> 150 µM
same,IC50,Histamine H1,> 30 µM
same,inhibition at 10 µM,5-HT1A,9%
same,IC50,rat α4β2 nAChR,> 30 µM
same,IC50,MAO-B,> 30 µM
